Data published in ChEMBL document CHEMBL3046553, “Bioanalytical method development and validation for simultaneous estimation of (R)- and (S)-isomers of S002-333: a potent novel anti-thrombotic agent using LCMS/MS” (Med Chem Res, 2011).

Tests used:
[1] = AUC (0 to infinity) in New Zealand Oryctolagus cuniculus (rabbit) at 2 mg/kg, iv; type: ADME, organism-based; parameters: time infinity, dose 2 mg/kg, route intravenous; conditions: plasma
[2] = Initial plasma concentration in New Zealand Oryctolagus cuniculus (rabbit) at 2 mg/kg, iv; type: ADME, organism-based; parameters: dose 2 mg/kg, route intravenous
[3] = Volume of distribution in New Zealand Oryctolagus cuniculus (rabbit) at 2 mg/kg, iv; type: ADME, organism-based; parameters: dose 2 mg/kg, route intravenous; conditions: in vivo
Plasma = assay: Drug recovery in New Zealand Oryctolagus cuniculus (rabbit) plasma at 1.56 to 400 ng/ml; type: ADME, cell-free
[4] = Clearance in New Zealand Oryctolagus cuniculus (rabbit) at 2 mg/kg, iv; type: ADME, organism-based; parameters: dose 2 mg/kg, route intravenous; conditions: in vivo
[5] = Half life in New Zealand Oryctolagus cuniculus (rabbit) at 2 mg/kg, iv; type: ADME, organism-based; parameters: dose 2 mg/kg, route intravenous; conditions: in vivo

AUC(0-inf) [1] [ng·h/mL]	C0 [2] [ng/mL]	Vd [3] [L/kg]	Drug recovery (Plasma) [%]	clearance [4] [mL/min/kg]	half-life [5] [h]	SMILES
436	276	29.8	40.88	84.3	4.01	COc1ccc(S(=O)(=O)N2Cc3[nH]c4ccccc4c3C[C@H]2C(N)=O)cc1 [S007-1558 (S)]
568	288	22	53.21	64.7	3.84	COc1ccc(S(=O)(=O)N2Cc3[nH]c4ccccc4c3C[C@@H]2C(N)=O)cc1
